28 compounds from patent US6960574B2, “Antagonists of RF-amide neuropeptides” (University of Florida, priority 2002, dated 2005) can be followed below.

Peptide text beside a SMILES is read from it. * marks the point of attachment. Dansyl = CN(C)c1cccc2c(S(=O)(=O)*)cccc12

The test relates to receptor labeled by the radioiodinated analogue of 1 (4, [125I]-YLFQPQRF-NH2); neuropeptide FF receptor. The test is described as follows: Competitive radioligand binding against 4 ([125I]Y8F-amide). The note with it: mixture-based positional scanning; difference from averaged radioligand displacement of whole library (0); about 80 a.u. = 10-fold change in Ki. An excerpt: Additionally, three-dimensional (3-D) molecular models of the known smaller-size neuropeptide FF antagonists 3 and 3a were constructed and their low-energy conformations were obtained in the AMBER force-field [Weiner, et al., J. Comput. Chem. 1986, 7, […].] by molecular dynamics calculations involving simulated annealing. A semi-empirical quantum chemical method with the PM3 parameterization [Stewart, J. Comput. Chem. 1989, 10, 209-220.] was used for the final geometry optimization. […] At least one of the rings in domain B is aromatic. No similarity between 3 and 3a outside these domains were apparent; therefore, the simultaneous presence of A and B domains in the structure of neuropeptide FF (1) antagonists is critical to the invention. Apparently, structural subunits (domain C) outside domains A and B should function in a cooperative manner in directing the pharmacophores into proper geometric positions when improved binding to the cognate receptor is to be obtained, which is associated with the improvement of the desired pharmacological effect. An approach involving mixture-based synthetic combinatorial libraries and positional scanning [(a) Houghten, et al., J. Med Chem. 1999, 42, 3743-3778.] was adopted in the search for preferred structural motifs in domain C that assist in achieving this objective in this invention. To allow for the use of 3 as a reference in this process, the guadinino group (A) was incorporated as part of an L-2-amino-5-{[amino(imino)methyl]amino}pentanoyl (arginyl, R, Arg) residue and 5-dimethylamino-1-naphthalenesulphonyl (dansyl) was chosen to form B (However, it must be emphasized that both R and dansyl are replaceable with moieties that bestow A and B domain attributes described in the invention).
Upon screening for residues to replace the glutamine of 3, serine (S) was the only building block in this position that increased the displacement of 4 in the radioligand-binding assay. Therefore, motifs present in dansyl-Gly-Ser-Arg-NH2, dansyl-Gly-Gln-Arg-NH2, dansyl-Gln-Ser-Arg-NH2, and dansyl-Gln-Gln-Arg-NH2 were chosen based on their affinity to the cognate receptor for further consideration as primary templates when designing the domain C of the compounds described in the invention herein. […]
(In a radioligand displacement assay an active substance lowers the binding of a labelled ligand.)
Turning to `CN(C)c1cccc2c(S(=O)(=O)N[C@@H](CC(=O)O)C(=O)N[C@@H](CCCCN)C(=O)N[C@@H](CCCNC(=N)N)C(N)=O)cccc12` [Dansyl-DKR-amide] (Dansyl-Asp-Lys-Arg-NH2), the “Relative Binding Index (RBI)” value is recorded as −8 a.u.
`CN(C)c1cccc2c(S(=O)(=O)N[C@@H](CC(=O)O)C(=O)N3CCC[C@H]3C(=O)N[C@@H](CCCNC(=N)N)C(N)=O)cccc12` [Dansyl-DPR-amide] (Dansyl-Asp-Pro-Arg-NH2): the “Relative Binding Index (RBI)” value is recorded as −2 a.u.
With `CN(C)c1cccc2c(S(=O)(=O)N[C@@H](Cc3ccccc3)C(=O)N[C@@H](Cc3ccccc3)C(=O)N[C@@H](CCCNC(=N)N)C(N)=O)cccc12` [Dansyl-FFR-amide] (Dansyl-Phe-Phe-Arg-NH2) the figure was 8 a.u; with `CSCC[C@H](NS(=O)(=O)c1cccc2c(N(C)C)cccc12)C(=O)N[C@H](C(=O)N[C@@H](CCCNC(=N)N)C(N)=O)C(C)C` [Dansyl-MVR-amide] (Dansyl-Met-Val-Arg-NH2), −49 a.u; with `CN(C)c1cccc2c(S(=O)(=O)N[C@@H](CCC(N)=O)C(=O)N[C@@H](Cc3ccccc3)C(=O)N[C@@H](CCCNC(=N)N)C(N)=O)cccc12` [Dansyl-QFR-amide], 20 a.u.
On to `CN(C)c1cccc2c(S(=O)(=O)N[C@@H](CCC(N)=O)C(=O)N[C@@H](Cc3c[nH]c4ccccc34)C(=O)N[C@@H](CCCNC(=N)N)C(N)=O)cccc12` [Dansyl-QWR-amide] (Dansyl-Gln-Trp-Arg-NH2), for which the “Relative Binding Index (RBI)” value is reported as 30 a.u.
With `CN(C)c1cccc2c(S(=O)(=O)N[C@@H](CO)C(=O)N[C@@H](Cc3c[nH]cn3)C(=O)N[C@@H](CCCNC(=N)N)C(N)=O)cccc12` [Dansyl-SHR-amide] (Dansyl-Ser-His-Arg-NH2) the figure was 11 a.u; with `C[C@H](NC(=O)[C@H](C)NS(=O)(=O)c1cccc2c(N(C)C)cccc12)C(=O)N[C@@H](CCCNC(=N)N)C(N)=O` [Dansyl-AAR-amide] (Dansyl-Ala-Ala-Arg-NH2), −37 a.u; with `CC[C@H](C)[C@H](NS(=O)(=O)c1cccc2c(N(C)C)cccc12)C(=O)N1CCC[C@H]1C(=O)N[C@@H](CCCNC(=N)N)C(N)=O` [Dansyl-IPR-amide] (Dansyl-Ile-Pro-Arg-NH2), −8 a.u.
As for `CC[C@H](C)[C@H](NC(=O)[C@H](CCSC)NS(=O)(=O)c1cccc2c(N(C)C)cccc12)C(=O)N[C@@H](CCCNC(=N)N)C(N)=O` [Dansyl-MIR-amide] (Dansyl-Met-Ile-Arg-NH2), the “Relative Binding Index (RBI)” value is on record as −37 a.u.
For the compound `CN(C)c1cccc2c(S(=O)(=O)N[C@@H](CO)C(=O)N[C@@H](CCCCN)C(=O)N[C@@H](CCCNC(=N)N)C(N)=O)cccc12` [Dansyl-SKR-amide] (Dansyl-Ser-Lys-Arg-NH2), the “Relative Binding Index (RBI)” value is reported as 14 a.u.
With `CN(C)c1cccc2c(S(=O)(=O)N[C@@H](CC(N)=O)C(=O)N[C@@H](CC(=O)O)C(=O)N[C@@H](CCCNC(=N)N)C(N)=O)cccc12` [Dansyl-NDR-amide] (Dansyl-Asn-Asp-Arg-NH2) the figure was −5 a.u; with `CN(C)c1cccc2c(S(=O)(=O)N3CCC[C@H]3C(=O)NCC(=O)N[C@@H](CCCNC(=N)N)C(N)=O)cccc12` [Dansyl-PGR-amide] (Dansyl-Pro-Gly-Arg-NH2), −43 a.u.
In the case of `C[C@H](NS(=O)(=O)c1cccc2c(N(C)C)cccc12)C(=O)N[C@@H](Cc1c[nH]cn1)C(=O)N[C@@H](CCCNC(=N)N)C(N)=O` [Dansyl-AHR-amide] (Dansyl-Ala-His-Arg-NH2) it was 6 a.u; in that of `CSCC[C@H](NC(=O)[C@H](CCSC)NS(=O)(=O)c1cccc2c(N(C)C)cccc12)C(=O)N[C@@H](CCCNC(=N)N)C(N)=O` [Dansyl-MMR-amide] (Dansyl-Met-Met-Arg-NH2), −44 a.u; in that of `CSCC[C@H](NS(=O)(=O)c1cccc2c(N(C)C)cccc12)C(=O)N[C@@H](CO)C(=O)N[C@@H](CCCNC(=N)N)C(N)=O` [Dansyl-MSR-amide] (Dansyl-Met-Ser-Arg-NH2), −23 a.u.
For the compound `CN(C)c1cccc2c(S(=O)(=O)N3CCC[C@H]3C(=O)N[C@@H](CCCCN)C(=O)N[C@@H](CCCNC(=N)N)C(N)=O)cccc12` [Dansyl-PKR-amide] (Dansyl-Pro-Lys-Arg-NH2), the “Relative Binding Index (RBI)” value was −50 a.u.
With `CN(C)c1cccc2c(S(=O)(=O)N[C@@H](Cc3ccccc3)C(=O)N[C@@H](CC(N)=O)C(=O)N[C@@H](CCCNC(=N)N)C(N)=O)cccc12` [Dansyl-FNR-amide] (Dansyl-Phe-Asn-Arg-NH2) the figure was 11 a.u.
As for `CC(C)[C@H](NS(=O)(=O)c1cccc2c(N(C)C)cccc12)C(=O)N1CCC[C@H]1C(=O)N[C@@H](CCCNC(=N)N)C(N)=O` [Dansyl-VPR-amide] (Dansyl-Val-Pro-Arg-NH2), the “Relative Binding Index (RBI)” value is −1 a.u.
With `CC[C@H](C)[C@H](NC(=O)CNS(=O)(=O)c1cccc2c(N(C)C)cccc12)C(=O)N[C@@H](CCCNC(=N)N)C(N)=O` [Dansyl-GIR-amide] (Dansyl-Gly-Ile-Arg-NH2) the figure was 32 a.u.
In the case of `CN(C)c1cccc2c(S(=O)(=O)N[C@@H](CCC(N)=O)C(=O)N[C@@H](CCC(=O)O)C(=O)N[C@@H](CCCNC(=N)N)C(N)=O)cccc12` [Dansyl-QER-amide] (Dansyl-Gln-Glu-Arg-NH2) it was 22 a.u.
With `CSCC[C@H](NS(=O)(=O)c1cccc2c(N(C)C)cccc12)C(=O)N[C@@H](CC(C)C)C(=O)N[C@@H](CCCNC(=N)N)C(N)=O` [Dansyl-MLR-amide] (Dansyl-Met-Leu-Arg-NH2), the “Relative Binding Index (RBI)” value was −52 a.u.
In the case of `CC(C)[C@H](NC(=O)CNS(=O)(=O)c1cccc2c(N(C)C)cccc12)C(=O)N[C@@H](CCCNC(=N)N)C(N)=O` [Dansyl-GVR-amide] (Dansyl-Gly-Val-Arg-NH2), the “Relative Binding Index (RBI)” value is 20 a.u.
With `CC(C)[C@H](NS(=O)(=O)c1cccc2c(N(C)C)cccc12)C(=O)N[C@@H](Cc1ccc(O)cc1)C(=O)N[C@@H](CCCNC(=N)N)C(N)=O` [Dansyl-VYR-amide] (Dansyl-Val-Tyr-Arg-NH2) the figure was −6 a.u; with `CN(C)c1cccc2c(S(=O)(=O)N[C@@H](Cc3ccc(O)cc3)C(=O)N[C@@H](CCC(N)=O)C(=O)N[C@@H](CCCNC(=N)N)C(N)=O)cccc12` [Dansyl-YQR-amide] (Dansyl-Tyr-Gln-Arg-NH2), 21 a.u.
With `CN(C)c1cccc2c(S(=O)(=O)N[C@@H](Cc3ccccc3)C(=O)N[C@@H](CCC(N)=O)C(=O)N[C@@H](CCCNC(=N)N)C(N)=O)cccc12` [Dansyl-FQR-amide] (Dansyl-Phe-Gln-Arg-NH2) the figure was 23 a.u.
In the case of `CC(C)C[C@H](NS(=O)(=O)c1cccc2c(N(C)C)cccc12)C(=O)N[C@@H](CC(N)=O)C(=O)N[C@@H](CCCNC(=N)N)C(N)=O` [Dansyl-LNR-amide] (Dansyl-Leu-Asn-Arg-NH2) it was −31 a.u; in that of `C[C@@H](O)[C@H](NC(=O)[C@H](Cc1cnc[nH]1)NS(=O)(=O)c1cccc2c(N(C)C)cccc12)C(=O)N[C@@H](CCCNC(=N)N)C(N)=O` [Dansyl-HTR-amide] (Dansyl-His-Thr-Arg-NH2), 22 a.u.
